Question: For `COCc1nc2nc[nH]c2c2nc(-c3ccccc3)nn12` [Example 12, 5-methoxymethyl-8-phenyl-1H-1,2,4-triazolo[5,1-i]purine], which melting point is on record?
Answer: ≥ 280 °C

Question: Which melting point does the source give for `c1ccc(-c2ccc(-c3nc4c5[nH]cnc5nc(C5CCCCC5)n4n3)cc2)cc1` [Example 45, 8-(4-biphenylyl)-5-cyclohexyl-1H-1,2,4-triazolo[5,1-i]purine] here?
Answer: ≥ 280 °C

Question: With `COCc1nc2nc[nH]c2c2nc(-c3ccc(C(C)(C)C)cc3)nn12` [Example 15, 8-(4-t-butylphenyl)-5-methoxymethyl-1H-1,2,4-triazolo[5,1-i]purine] as the compound, how does the melting point read?
Answer: ≥ 280 °C

Question: Which melting point does the source give for `CSCc1nc2nc[nH]c2c2nc(-c3ccc(-c4ccccc4)cc3)nn12` [Example 48, 8-(4-biphenylyl)-5-methylthiomethyl-1H-1,2,4-triazolo[5,1-i]purine] here?
Answer: 284 to 286 °C

Question: Which melting point does the source give for `CCOCc1nc2nc[nH]c2c2nc(-c3ccccc3)nn12` [Example 11, 5-ethoxymethyl-8-phenyl-1H-1,2,4-triazolo[5,1-i]purine] here?
Answer: 247 to 249 °C

Question: For `CC(=O)OCc1nc2nc[nH]c2c2nc(-c3ccc(-c4ccccc4)cc3)nn12` [Example 52, 8-(4-biphenylyl)-5-acetoxymethyl-1H-1,2,4-triazolo[5,1-i]purine], which melting point is on record?
Answer: 233 to 235 °C

Question: With `CCOCc1nc2nc[nH]c2c2nc(-c3ccc(C(C)(C)C)cc3)nn12` [Example 14, 8-(4-t-butylphenyl)-5-ethoxymethyl-1H-1,2,4-triazolo[5,1-i]purine] as the compound, how does the melting point read?
Answer: 243 to 244 °C

Question: With `CSCCc1nc2nc[nH]c2c2nc(-c3ccc(-c4ccccc4)cc3)nn12` [Example 4, 8-(4-biphenylyl)-5-(2-methylthioethyl)-1H-1,2,4-triazolo[5,1-i]purine] as the compound, how does the melting point read?
Answer: 249 to 251 °C

Question: Which melting point does the source give for `COCCc1nc2nc[nH]c2c2nc(-c3ccc(C(F)(F)F)cc3)nn12` [Example 26, 5-(2-methoxyethyl)-8-(4-trifluoromethylphenyl)-1H-1,2,4-triazolo[5,1-i]purine] here?
Answer: ≥ 256 °C (dec.)

Question: With `COCCc1nc2nc[nH]c2c2nc(-c3ccc(Cl)cc3)nn12` [Example 28, 8-(4-chlorophenyl)-5-(2-methoxyethyl)-1H-1,2,4-triazolo[5,1-i]purine] as the compound, how does the melting point read?
Answer: ≥ 278 °C (dec.)

Question: Which melting point does the source give for `CCOC(=O)CCCCc1nc2nc[nH]c2c2nc(-c3ccc(-c4ccccc4)cc3)nn12` [Example 22, 8-(4-biphenylyl)-5-(4-ethoxycarbonylbutyl)-1H-1,2,4-triazolo[5,1-i]purine] here?
Answer: 241 to 243 °C

Question: With `C[S+]([O-])CCc1nc2nc[nH]c2c2nc(-c3ccc(C(F)(F)F)cc3)nn12` (stereo not shown) [Example 40, 5-(2-methylsulfinylethyl)-8-(4-trifluoromethylphenyl)-1H-1,2,4-triazolo[5,1-i]purine] as the compound, how does the melting point read?
Answer: ≥ 203 °C (dec.)

Question: For `c1ccc(-c2ccc(-c3nc4c5[nH]cnc5nc(C5CCCC5)n4n3)cc2)cc1` [Example 46, 8-(4-biphenylyl)-5-cyclopentyl-1H-1,2,4-triazolo[5,1-i]purine], which melting point is on record?
Answer: ≥ 280 °C

Question: For `CC(C)(C)c1ccc(-c2nc3c4[nH]cnc4nc(CCS(C)(=O)=O)n3n2)cc1` [Example 43, 8-(4-t-butylphenyl)-5-(2-methylsulfonylethyl)-1H-1,2,4-triazolo[5,1-i]purine], which melting point is on record?
Answer: ≥ 201 °C (dec.)

Question: With `CCOCc1nc2nc[nH]c2c2nc(-c3cc(OC)c(OC)c(OC)c3)nn12` [Example 5, 5-ethoxymethyl-8-(3,4,5-trimethoxyphenyl)-1H-1,2,4-triazolo[5,1-i]purine] as the compound, how does the melting point read?
Answer: 254 to 255.5 °C

Question: With `COCCc1nc2nc[nH]c2c2nc(-c3ccccc3)nn12` (hydrate or solvate) [Example 13, 5-(2-methoxyethyl)-8-phenyl-1H-1,2,4-triazolo[5,1-i]purine] as the compound, how does the melting point read?
Answer: 217.5 to 218.5 °C

Question: With `CCOP(=O)(CCc1nc2nc[nH]c2c2nc(-c3ccc(-c4ccccc4)cc3)nn12)OCC` as the compound, how does the melting point read?
Answer: ≥ 110 °C

Question: Which melting point does the source give for `COCc1nc2nc[nH]c2c2nc(-c3cc(OC)c(OC)c(OC)c3)nn12` [Example 6, 5-methoxymethyl-8-(3,4,5-trimethoxyphenyl)-1H-1,2,4-triazolo[5,1-i]purine] here?
Answer: ≥ 280 °C

Question: For `COc1cc(-c2nc3c4[nH]cnc4nc(CCSC)n3n2)cc(OC)c1OC` [Example 19, 5-(2-methylthioethyl)-8-(3,4,5-trimethoxyphenyl)-1H-1,2,4-triazolo[5,1-i]purine], which melting point is on record?
Answer: 233 to 234 °C

Question: Which melting point does the source give for `COC(=O)CCCc1nc2nc[nH]c2c2nc(-c3ccc(-c4ccccc4)cc3)nn12` [Example 21, 8-(4-biphenylyl)-5-(3-methoxycarbonylpropyl)-1H-1,2,4-triazolo[5,1-i]purine] here?
Answer: 243 to 245.5 °C

Question: For `CCOCc1nc2nc[nH]c2c2nc(-c3ccc(C(F)(F)F)cc3)nn12` [Example 25, 5-ethoxymethyl-8-(4-trifluoromethylphenyl)-1H-1,2,4-triazolo[5,1-i]purine], which melting point is on record?
Answer: ≥ 280 °C

Question: For `C[S+]([O-])CCc1nc2nc[nH]c2c2nc(-c3ccc(-c4ccccc4)cc3)nn12` (stereo not shown) [Example 61, 8-(4-biphenylyl)-5-(2-methylsulfinylethyl)-1H-1,2,4-triazolo[5,1-i]purine], which melting point is on record?
Answer: ≥ 234 °C (dec.)

Question: Which melting point does the source give for `C[S+]([O-])Cc1nc2nc[nH]c2c2nc(-c3ccc(-c4ccccc4)cc3)nn12` (stereo not shown) [Example 60, 8-(4-biphenylyl)-5-methylsulfinylmethyl-1H-1,2,4-triazolo[5,1-i]purine] here?
Answer: ≥ 246 °C (dec.)

Question: With `CN(C)CCCc1nc2nc[nH]c2c2nc(-c3ccc(-c4ccccc4)cc3)nn12` [Example 55, 8-(4-biphenylyl)-5-(3-dimethylaminopropyl)-1H-1,2,4-triazolo[5,1-i]purine] as the compound, how does the melting point read?
Answer: 227 to 230 °C (dec.)

Question: For `CCOP(=O)(CCCc1nc2nc[nH]c2c2nc(-c3ccc(-c4ccccc4)cc3)nn12)OCC`, which melting point is on record?
Answer: 175 to 178 °C

Question: For `COCCc1nc2nc[nH]c2c2nc(-c3ccc(C(C)(C)C)cc3)nn12` [Example 16, 8-(4-t-butylphenyl)-5-(2-methoxyethyl)-1H-1,2,4-triazolo[5,1-i]purine], which melting point is on record?
Answer: 237 to 239 °C

Question: Which melting point does the source give for `COCc1nc2nc[nH]c2c2nc(-c3ccc(-c4ccccc4)cc3)nn12` [Example 2, 8-(4-biphenylyl)-5-methoxymethyl-1H-1,2,4-triazolo[5,1-i]purine] here?
Answer: ≥ 280 °C

Question: Which melting point does the source give for `CCCOc1ccc(-c2nc3c4[nH]cnc4nc(COCC)n3n2)cc1` [Example 8, 5-ethoxymethyl-8-(4-n-propoxyphenyl)-1H-1,2,4-triazolo[5,1-i]purine] here?
Answer: 262 to 263 °C

Question: With `C[S+]([O-])CCc1nc2nc[nH]c2c2nc(-c3ccc(Cl)cc3)nn12` (stereo not shown) [Example 38, 8-(4-chlorophenyl)-5-(2-methylsulfinylethyl)-1H-1,2,4-triazolo[5,1-i]purine] as the compound, how does the melting point read?
Answer: ≥ 218 °C (dec.)

Question: Which melting point does the source give for `CSCCc1nc2nc[nH]c2c2nc(-c3ccc(Cl)cc3)nn12` [Example 29, 8-(4-chlorophenyl)-5-(2-methylthioethyl)-1H-1,2,4-triazolo[5,1-i]purine] here?
Answer: ≥ 257 °C (dec.)

Question: With `COC(=O)CCCc1nc2nc[nH]c2c2nc(-c3ccccc3)nn12` [Example 18, 5-(3-methoxycarbonylpropyl)-8-phenyl-1H-1,2,4-triazolo[5,1-i]purine] as the compound, how does the melting point read?
Answer: 228 to 230 °C

Question: Which melting point does the source give for `C[S+]([O-])CCc1nc2nc[nH]c2c2nc(-c3ccc(C(C)(C)C)cc3)nn12` (stereo not shown) [Example 39, 8-(4-t-butylphenyl)-5-(2-methylsulfinylethyl)-1H-1,2,4-triazolo[5,1-i]purine] here?
Answer: ≥ 162 °C (dec.)

Question: For `c1ccc(COCCCc2nc3nc[nH]c3c3nc(-c4ccc(-c5ccccc5)cc4)nn23)cc1` [Example 56, 5-(3-benzyloxypropyl)-8-(4-biphenylyl)-1H-1,2,4-triazolo[5,1-i]purine], which melting point is on record?
Answer: 237 to 238 °C

Question: Which melting point does the source give for `COC(=O)CCCc1nc2nc[nH]c2c2nc(-c3ccc(C(C)(C)C)cc3)nn12` [Example 23, 8-(4-t-butylphenyl)-5-(3-methoxycarbonylpropyl)-1H-1,2,4-triazolo[5,1-i]purine] here?
Answer: 169 to 172.5 °C

Reference: patent US6686343B1, “Triazolopurine derivatives, pharmaceutical compositions containing the derivatives, and adenosine A3 receptor affinitive agents” (Otsuka Pharmaceutical Factory, Inc., priority 1999, dated 2004)
